Test results from patent US20160378912A1, “STRUCTURE-BASED MODELING AND TARGET-SELECTIVITY PREDICTION” (EPIGENETX, LLC, priority 2013, published 2016).
Like-named read-outs stand apart in the source and are kept apart here.

What was measured:
HDAC8 = target: T1, HDAC8 (Homo sapiens, UniProt Q9BY41); conditions: cited from earlier work; for pIC50: training set composition
T1 sequence (Q9BY41 1-377): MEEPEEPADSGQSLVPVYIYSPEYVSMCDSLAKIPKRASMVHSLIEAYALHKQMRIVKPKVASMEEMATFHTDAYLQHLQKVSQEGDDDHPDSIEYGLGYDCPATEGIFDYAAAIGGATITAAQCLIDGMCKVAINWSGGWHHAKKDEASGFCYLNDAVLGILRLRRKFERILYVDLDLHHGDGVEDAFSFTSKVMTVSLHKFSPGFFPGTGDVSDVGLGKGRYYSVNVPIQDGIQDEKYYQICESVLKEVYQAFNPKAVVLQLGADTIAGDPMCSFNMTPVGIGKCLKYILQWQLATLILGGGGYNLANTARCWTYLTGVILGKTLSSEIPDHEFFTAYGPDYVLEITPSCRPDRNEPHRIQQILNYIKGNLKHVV

HDAH = target: T2, HDAH (Alcaligenes sp., UniProt Q70I53); conditions: CTS; cited from earlier work
T2 sequence (Q70I53 1-369): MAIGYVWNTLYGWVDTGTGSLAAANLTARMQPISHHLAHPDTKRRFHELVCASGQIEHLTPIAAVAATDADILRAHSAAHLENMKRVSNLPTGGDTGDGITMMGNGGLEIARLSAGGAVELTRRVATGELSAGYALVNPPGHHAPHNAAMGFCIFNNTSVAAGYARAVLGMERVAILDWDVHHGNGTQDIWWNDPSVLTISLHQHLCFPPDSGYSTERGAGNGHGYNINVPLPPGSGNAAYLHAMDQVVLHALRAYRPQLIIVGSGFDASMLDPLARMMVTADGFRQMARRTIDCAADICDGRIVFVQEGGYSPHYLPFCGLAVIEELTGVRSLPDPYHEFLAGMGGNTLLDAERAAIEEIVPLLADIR

HDAC isoforms = assay: HDAC inhibition profiled over several HDAC isoforms (experimental); format: biochemical, human; conditions: range of pIC50 over the profiled HDAC isoforms
HDAC7 = target: T3, HDAC7 (Homo sapiens, UniProt Q8WUI4); conditions: cited from earlier work
T3 sequence (Q8WUI4 1-952): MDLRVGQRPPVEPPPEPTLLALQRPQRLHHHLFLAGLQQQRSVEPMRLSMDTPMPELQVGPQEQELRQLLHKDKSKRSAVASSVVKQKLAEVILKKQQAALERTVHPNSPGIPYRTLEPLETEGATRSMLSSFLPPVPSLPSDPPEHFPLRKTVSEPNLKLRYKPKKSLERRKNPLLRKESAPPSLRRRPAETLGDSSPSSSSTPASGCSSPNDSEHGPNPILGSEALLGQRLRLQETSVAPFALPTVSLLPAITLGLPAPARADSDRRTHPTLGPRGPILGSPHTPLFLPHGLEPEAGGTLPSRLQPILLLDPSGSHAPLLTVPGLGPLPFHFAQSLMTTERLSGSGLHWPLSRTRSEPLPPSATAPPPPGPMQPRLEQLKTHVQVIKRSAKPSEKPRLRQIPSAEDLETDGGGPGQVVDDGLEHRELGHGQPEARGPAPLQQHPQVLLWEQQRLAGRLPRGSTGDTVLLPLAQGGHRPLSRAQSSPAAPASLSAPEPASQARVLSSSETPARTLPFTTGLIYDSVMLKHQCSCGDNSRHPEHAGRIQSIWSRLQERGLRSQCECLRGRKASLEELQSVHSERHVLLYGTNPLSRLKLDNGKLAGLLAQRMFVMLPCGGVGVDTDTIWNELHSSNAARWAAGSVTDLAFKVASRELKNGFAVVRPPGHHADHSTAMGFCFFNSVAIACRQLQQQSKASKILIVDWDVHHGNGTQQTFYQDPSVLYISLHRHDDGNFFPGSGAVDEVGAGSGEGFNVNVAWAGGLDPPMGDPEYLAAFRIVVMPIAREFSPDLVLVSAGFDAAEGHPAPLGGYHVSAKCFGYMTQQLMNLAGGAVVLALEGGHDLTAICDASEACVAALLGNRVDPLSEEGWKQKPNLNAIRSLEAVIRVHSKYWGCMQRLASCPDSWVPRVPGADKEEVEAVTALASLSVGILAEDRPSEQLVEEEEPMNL

HDAC4 = HDAC4 (Homo sapiens, UniProt P56524); conditions: cited from earlier work; for pIC50: training set composition; for IC50: training set, read-out: HDACs inhibitory activities IC50
HDAC10 = target: T4, HDAC10 (Homo sapiens, UniProt Q969S8); conditions: cited from earlier work; for Exp. pIC50: MTS inhibitors; for pIC50exp: experimental value of modeled complex; for pIC50: training set composition
T4 sequence (Q969S8 1-669): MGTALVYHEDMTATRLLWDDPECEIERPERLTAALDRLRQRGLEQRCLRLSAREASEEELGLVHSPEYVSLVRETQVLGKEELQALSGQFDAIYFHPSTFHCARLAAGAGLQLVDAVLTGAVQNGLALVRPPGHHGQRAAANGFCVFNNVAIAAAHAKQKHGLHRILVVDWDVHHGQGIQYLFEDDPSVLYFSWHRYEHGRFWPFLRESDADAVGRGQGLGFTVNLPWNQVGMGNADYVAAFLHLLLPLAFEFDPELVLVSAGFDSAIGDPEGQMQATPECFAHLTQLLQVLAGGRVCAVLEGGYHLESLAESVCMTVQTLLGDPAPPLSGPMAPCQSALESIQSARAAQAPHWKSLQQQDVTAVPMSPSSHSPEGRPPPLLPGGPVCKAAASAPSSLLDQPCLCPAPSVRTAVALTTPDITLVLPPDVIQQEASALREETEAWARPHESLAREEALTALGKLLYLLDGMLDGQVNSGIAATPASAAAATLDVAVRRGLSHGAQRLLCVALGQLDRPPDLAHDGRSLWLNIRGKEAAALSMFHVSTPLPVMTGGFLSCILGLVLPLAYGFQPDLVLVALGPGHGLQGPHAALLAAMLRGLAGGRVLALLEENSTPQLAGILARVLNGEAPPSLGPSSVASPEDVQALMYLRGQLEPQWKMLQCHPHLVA

HDAC2 = HDAC2 (Homo sapiens, UniProt Q92769); conditions: cited from earlier work; for Exp. pIC50: MTS inhibitors
HDAC6 = target: T5, HDAC6 (Homo sapiens, UniProt Q9UBN7); conditions: cited from earlier work; for IC50: HDAC6, MTS, read-out: reported HDACs inhibitory activities IC50; for Exp. pIC50: MTS inhibitors
T5 sequence (Q9UBN7 1-1215): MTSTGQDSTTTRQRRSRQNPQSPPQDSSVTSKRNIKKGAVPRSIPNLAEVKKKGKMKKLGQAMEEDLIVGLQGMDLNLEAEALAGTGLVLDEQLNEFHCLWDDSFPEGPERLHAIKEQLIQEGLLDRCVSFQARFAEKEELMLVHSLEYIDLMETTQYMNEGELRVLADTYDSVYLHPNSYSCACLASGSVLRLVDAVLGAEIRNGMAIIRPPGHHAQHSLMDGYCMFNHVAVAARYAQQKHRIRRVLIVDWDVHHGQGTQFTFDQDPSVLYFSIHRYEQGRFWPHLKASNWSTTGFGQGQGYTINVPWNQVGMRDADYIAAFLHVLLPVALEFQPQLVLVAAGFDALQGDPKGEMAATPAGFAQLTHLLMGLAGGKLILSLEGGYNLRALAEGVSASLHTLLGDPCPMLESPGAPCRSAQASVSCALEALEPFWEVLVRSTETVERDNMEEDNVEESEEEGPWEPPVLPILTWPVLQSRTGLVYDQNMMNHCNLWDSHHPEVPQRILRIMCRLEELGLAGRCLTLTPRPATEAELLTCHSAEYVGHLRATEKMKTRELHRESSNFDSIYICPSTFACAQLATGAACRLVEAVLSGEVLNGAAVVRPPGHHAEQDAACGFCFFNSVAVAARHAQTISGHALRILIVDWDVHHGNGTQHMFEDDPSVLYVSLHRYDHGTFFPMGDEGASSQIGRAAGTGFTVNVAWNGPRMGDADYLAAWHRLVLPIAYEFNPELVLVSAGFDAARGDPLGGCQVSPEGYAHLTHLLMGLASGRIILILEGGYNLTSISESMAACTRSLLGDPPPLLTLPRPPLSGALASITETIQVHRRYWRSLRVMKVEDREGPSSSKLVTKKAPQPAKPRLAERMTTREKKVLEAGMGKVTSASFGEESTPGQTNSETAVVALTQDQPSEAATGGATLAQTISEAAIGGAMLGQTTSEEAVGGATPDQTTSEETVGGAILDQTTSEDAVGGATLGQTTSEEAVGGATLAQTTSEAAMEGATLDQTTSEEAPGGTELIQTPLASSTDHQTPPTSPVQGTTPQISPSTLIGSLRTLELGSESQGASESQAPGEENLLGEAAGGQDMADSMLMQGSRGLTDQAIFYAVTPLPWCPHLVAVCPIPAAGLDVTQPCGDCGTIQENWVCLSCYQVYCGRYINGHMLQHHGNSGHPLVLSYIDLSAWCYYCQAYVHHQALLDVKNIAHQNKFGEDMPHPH

HDAC1 = HDAC1 (Homo sapiens, UniProt Q13547); conditions: cited from earlier work; for Exp. pIC50: MTS inhibitors
HDAC3 = HDAC3 (Homo sapiens, UniProt O15379); conditions: cited from earlier work
[1] = co-crystallized ligand, read-out: IC50
[2] = training set, read-out: HDACs inhibitory activities IC50
[3] = MTS, read-out: reported HDACs inhibitory activities IC50
[4] = HDAC6, listed with HDAC6-1 complexes
[5] = HDAC6, listed with HDAC6-2 complexes

HDAC4, sequence (P56524 whole entry): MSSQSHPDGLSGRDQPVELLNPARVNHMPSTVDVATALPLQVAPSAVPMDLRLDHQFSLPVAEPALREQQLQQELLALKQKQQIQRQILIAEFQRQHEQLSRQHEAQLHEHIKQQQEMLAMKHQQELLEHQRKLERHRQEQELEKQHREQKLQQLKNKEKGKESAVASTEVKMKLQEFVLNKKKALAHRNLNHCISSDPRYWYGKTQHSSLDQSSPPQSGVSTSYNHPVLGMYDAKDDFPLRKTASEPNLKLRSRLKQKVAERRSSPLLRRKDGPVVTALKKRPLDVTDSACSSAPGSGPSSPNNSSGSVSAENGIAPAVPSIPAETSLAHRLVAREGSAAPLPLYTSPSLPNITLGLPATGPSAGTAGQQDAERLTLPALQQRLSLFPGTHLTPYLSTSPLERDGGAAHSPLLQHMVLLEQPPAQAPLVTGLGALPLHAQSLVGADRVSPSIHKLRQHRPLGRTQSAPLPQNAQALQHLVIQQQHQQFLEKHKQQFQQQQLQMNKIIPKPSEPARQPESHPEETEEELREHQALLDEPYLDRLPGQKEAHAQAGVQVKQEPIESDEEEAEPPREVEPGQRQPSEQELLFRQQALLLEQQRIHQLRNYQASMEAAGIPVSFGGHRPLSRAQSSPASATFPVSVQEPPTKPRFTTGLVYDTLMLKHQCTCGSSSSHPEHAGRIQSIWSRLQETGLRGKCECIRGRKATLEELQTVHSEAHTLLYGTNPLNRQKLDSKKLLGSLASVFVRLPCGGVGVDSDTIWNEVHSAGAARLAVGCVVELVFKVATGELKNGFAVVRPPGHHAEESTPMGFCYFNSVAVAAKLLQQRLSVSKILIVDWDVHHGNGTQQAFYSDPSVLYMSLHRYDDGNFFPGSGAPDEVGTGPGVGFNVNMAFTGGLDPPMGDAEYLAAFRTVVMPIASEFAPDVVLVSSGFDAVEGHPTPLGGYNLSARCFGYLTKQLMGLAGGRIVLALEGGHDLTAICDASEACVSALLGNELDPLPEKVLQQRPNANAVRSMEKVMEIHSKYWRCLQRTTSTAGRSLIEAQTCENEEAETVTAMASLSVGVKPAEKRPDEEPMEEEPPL
HDAC1, sequence (Q13547 whole entry): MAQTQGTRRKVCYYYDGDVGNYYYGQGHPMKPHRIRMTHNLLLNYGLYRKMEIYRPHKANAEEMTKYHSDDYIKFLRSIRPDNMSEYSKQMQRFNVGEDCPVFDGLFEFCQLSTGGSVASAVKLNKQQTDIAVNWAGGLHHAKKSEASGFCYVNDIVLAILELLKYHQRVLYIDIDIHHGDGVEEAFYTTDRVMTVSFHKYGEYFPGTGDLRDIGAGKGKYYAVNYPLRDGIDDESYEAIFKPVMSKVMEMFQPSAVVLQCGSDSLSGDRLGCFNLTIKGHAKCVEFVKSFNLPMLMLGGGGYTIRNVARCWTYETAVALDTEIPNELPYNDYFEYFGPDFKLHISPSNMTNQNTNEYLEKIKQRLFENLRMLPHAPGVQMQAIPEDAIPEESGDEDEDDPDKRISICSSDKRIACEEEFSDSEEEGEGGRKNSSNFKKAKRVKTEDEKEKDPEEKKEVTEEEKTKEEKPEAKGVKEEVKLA
HDAC2, sequence (Q92769 whole entry): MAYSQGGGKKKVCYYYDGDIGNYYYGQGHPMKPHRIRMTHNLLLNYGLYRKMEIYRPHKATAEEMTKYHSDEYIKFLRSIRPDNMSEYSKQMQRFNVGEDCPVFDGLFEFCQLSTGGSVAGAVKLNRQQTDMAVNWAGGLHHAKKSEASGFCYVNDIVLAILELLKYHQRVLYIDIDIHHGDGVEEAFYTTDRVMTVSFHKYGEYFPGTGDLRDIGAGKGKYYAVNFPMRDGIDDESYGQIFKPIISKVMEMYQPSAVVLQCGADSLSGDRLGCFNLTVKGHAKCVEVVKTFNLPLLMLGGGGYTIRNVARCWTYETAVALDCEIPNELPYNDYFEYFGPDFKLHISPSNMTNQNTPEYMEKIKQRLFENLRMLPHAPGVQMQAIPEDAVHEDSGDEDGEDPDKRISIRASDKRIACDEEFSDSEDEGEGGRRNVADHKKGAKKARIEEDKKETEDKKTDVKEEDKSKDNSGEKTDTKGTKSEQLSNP
HDAC3, sequence (O15379 whole entry): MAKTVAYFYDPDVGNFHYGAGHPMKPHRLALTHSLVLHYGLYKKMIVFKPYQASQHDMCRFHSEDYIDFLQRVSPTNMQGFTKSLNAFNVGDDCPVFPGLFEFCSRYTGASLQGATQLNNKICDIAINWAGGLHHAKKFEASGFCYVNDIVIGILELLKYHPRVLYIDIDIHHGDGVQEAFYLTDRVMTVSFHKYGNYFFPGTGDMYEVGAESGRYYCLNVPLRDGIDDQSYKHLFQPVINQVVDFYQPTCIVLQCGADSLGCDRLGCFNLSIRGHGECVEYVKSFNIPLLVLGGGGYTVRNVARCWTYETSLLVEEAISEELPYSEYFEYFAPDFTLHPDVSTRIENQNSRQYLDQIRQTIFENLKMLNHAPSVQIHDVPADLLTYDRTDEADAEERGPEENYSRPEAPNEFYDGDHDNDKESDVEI
HDAC3, sequence (Q9Y618 395-489 partner limits assumed): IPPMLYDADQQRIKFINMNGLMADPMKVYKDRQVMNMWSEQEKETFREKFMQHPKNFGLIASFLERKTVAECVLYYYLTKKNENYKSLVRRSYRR

In the case of “4-dimethylamino-n-(6- hydroxycarbamoyethyl) benzamide-n-hydroxy-7-(4- dimethylaminobenzoyl) aminoheptanamide [MS-344]”, the IC50 (HDAC8; [1]) is listed as 0.249 µM and the pIC50 (HDAC8) is listed as 6.60.

For N[C@H](Cc1ccc(Cl)cc1Cl)C(=O)N1CCN(C(=O)c2ccc(F)cc2F)CC1 [0DI], the IC50 (HDAC8; CTS, read-out: IC50) is listed as 0.2 µM and the “Experimental pIC50” value (HDAC8; CTS) is listed as 6.70.

In the case of O=C(CCC1CCCC1)NO [3YP, 3-cyclopentyl-n-hydroxypropanamide], the “Experimental pIC50” value (HDAH) is given as 6.54 and the IC50 (HDAH) is given as 0.29 µM.

For Cn1cc(C(=O)Cc2ccccc2)cc1/C=C/C(=O)NO [APHA8, (2E)-N-hydroxy-3-[1-methyl-4-(phenylacetyl)-1H-pyrrol-2-yl]prop-2-enamide], the “Bioactivity range (ΔpIC50) DpIC50” value (HDAC isoforms) is given as 1.87, the pIC50 (HDAC7; training set composition) is given as 5.51 and the IC50 (HDAC7; [2]) is given as 3.1 µM. The pIC50 (HDAC4) was 5.51 and the IC50 (HDAC4) was 3.1 µM.

For O=C(CCCCCCC(=O)C(F)(F)F)Nc1ccccc1 [CF3, 9,9,9-trifluoro-8-oxo-n-phenylnonanamide], the “Experimental pIC50” value (HDAH) is given as 4.95 and the IC50 (HDAH) is given as 11.2 µM.

For CC(C)(C)OC(=O)Nc1ccccc1-c1ccc(NC(=O)CCCCCCC(=O)NO)cc1 [CMC-7f], the “Exp. pIC50” value (HDAC10) is given as 7.08, the IC50 (HDAC10; [3]) is given as 0.083 µM and the “Exp. pIC50” value (HDAC2) is given as 7.13. For the same molecule, the IC50 (HDAC2; [3]) was 0.074 µM, the IC50 (HDAC6) was 0.011 µM and the “Exp. pIC50” value (HDAC6; [4]) was 7.96. The “Exp. pIC50” value (HDAC6; [5]) was 7.96, the “Exp. pIC50” value (HDAC8; MTS inhibitors) was 5.76 and the IC50 (HDAC8; [3]) was 1.72 µM. The “Exp. pIC50” value (HDAC1) was 7.24, the IC50 (HDAC1; [3]) was 0.057 µM and the “Exp. pIC50” value (HDAC3; MTS inhibitors) was 7.75. The IC50 (HDAC3; [3]) was 0.018 µM.

In the case of CC(C)(C)OC(=O)Nc1cccc(-c2csc(NC(=O)CCCCCCC(=O)NO)n2)c1 [CMC-25b], the “Exp. pIC50” value (HDAC10) is listed as 8.70, the IC50 (HDAC10; [3]) is listed as 0.002 µM and the “Exp. pIC50” value (HDAC2) is listed as 7.13. The IC50 (HDAC6) was 0.0002 µM, the “Exp. pIC50” value (HDAC6; [4]) was 9.70 and the “Exp. pIC50” value (HDAC6; [5]) was 9.70.

In the case of CNC(=O)/C(CCCCCCC(=O)Nc1cccc(-c2ccc(Cl)nc2)c1)=N\O [JMC-23], the IC50 (HDAC8; [3]) is listed as 100 µM.

In the case of C[C@@H](NC(=O)c1ccc(C(=O)C(F)(F)F)s1)c1ccccc1 [MCL08-3d], the “Exp. pIC50” value (HDAC1) is given as 6.50.

For CN(c1ccc(C(=O)NO)cc1)S(=O)(=O)c1ccc(-c2ccccn2)s1 [NHB, N-hydroxy-4-{methyl[(5-pyridin-2-ylthiophen-2-yl)sulfonyl]amino}benzamide], the IC50 (HDAC8; [1]) is listed as 0.175 µM and the pIC50 (HDAC8) is listed as 6.76.

In the case of CCCC(CCC)C(=O)O [VALP, valproic acid], the pIC50exp (HDAC10) is listed as 3, the pIC50 (HDAC10) is listed as 3.00 and the IC50 (HDAC10; [2]) is listed as 1000 µM. The “Bioactivity range (ΔpIC50) DpIC50” value (HDAC isoforms) was 0.95, the pIC50exp (HDAC1; experimental value of modeled complex) was 3 and the pIC50 (HDAC1; training set composition) was 3.00. The IC50 (HDAC1; [2]) was 1000 µM.

In the case of MS-275, the “Bioactivity range (ΔpIC50) DpIC50” value (HDAC isoforms) is reported as 2.63.

In the case of Oxamflatin, the pIC50exp (HDAC10) is given as 7.301, the pIC50 (HDAC10) is given as 7.30 and the IC50 (HDAC10; [2]) is given as 0.05 µM. For the same molecule, the “Bioactivity range (ΔpIC50) DpIC50” value (HDAC isoforms) was 2.34, the pIC50 (HDAC4) was 7.52 and the IC50 (HDAC4) was 0.03 µM.

In the case of SCRIPTAID, the “Bioactivity range (ΔpIC50) DpIC50” value (HDAC isoforms) is reported as 2.76.
